Laboratory results: publication PMC5567253 (Scientific Reports, 2017)
Where two headings read alike, the source gives them in different places.

Legend:
[1] = test system: MDA-MB-231 cells; test: cells; details: Homo sapiens, read-out: IC50 of suppression of cell viability
Description: After incubation, MTT solution (5 mg/ml, 20 μl per well) was added and incubated for 4 h. The culture media were then replaced with dimethyl sulfoxide (DMSO, 150 μl). […] The results are expressed as mean percentage of viable cells relative to untreated cells.

[2] = test system: MDA-MB-231 cells; test: cells; details: Homo sapiens, MDA-MB-231, 48 h, read-out: approximate IC50 of colony forming ability
Description: The culture media was then aspirated and fresh cell culture media was added to allow colony formation. The culture media was changed every third day. The colonies were fixed with ice-cold methanol for 5 min and stained with 1.0% crystal violet for 30 min. Colony numbers were counted and representative photos were taken.

[3] = test system: MDA-MB-231 cells; test: Scratch-wound (wound healing) migration assay; assay type: cell-based; details: Homo sapiens, 20 h
Description: (§1) Cell invasion and migration were measured using Transwell and wound healing assays, respectively. For Transwell assays, 2 × 10^4 cells were suspended in serum-free media and seeded in the top chamber of Matrigel-coated invasion inserts (Corning life science, Corning, NY). BHX was then added to the top chambers. DMEM containing 10% FBS was added to the lower chamber as a chemoattractant. After 24 h incubation, the non-invading cells on the upper surface of the membrane were wiped away, and the invading cells on the lower surface of the membrane were fixed using 95% ethanol and stained with 0.1% crystal violet. Images were captured at ×200 magnification using an inverted phase contrast microscope (BX61, Olympus, Japan). In parallel, cells were treated identically in 24-well plate. These cells were harvested, stained with 0.1% crystal violet, and counted. The number of cells that had invaded was normalized for effects on cell viability. For wound healing assays, cells were seeded at 2 × 10^5 cells/well in 24-well culture plates and allowed to reach confluence. […] Images of the scratches were recorded at ×40 magnification using a phase contrast microscope (EVOS, AMG, USA) at 0 and 20 h. The areas between leading edges were measured using Image J software, after which the rates of wound healing were calculated.

[4] = test system: MDA-MB-231 cells; test: Transwell invasion assay; assay type: cell-based, human; details: 20 μM, 24 h, normalized for cell viability
Description: as §1

[5] = test system: MDA-MB-231 cells; test: Cell cycle analysis by flow cytometry; assay type: cell-based, human; details: 24 h, vehicle 31.52 ± 2.67%
Description: Cell cycle analysis was carried out as previously described. […] They were washed thrice with ice-cold phosphate-buffered saline (PBS) and fixed with 75% ethanol at −20 °C overnight. The cells were then washed, incubated with 5 μl of RNase (0.25 mg/ml) at 37 °C for 30 min, pelleted, resuspended in propidium iodide (PI, 50 μg/ml), and incubated in the dark at room temperature for 15 min. Cell cycle analysis was analysed using a flow cytometer (FACSCanto II, BD, San Jose, CA).

[6] = test system: MDA-MB-231 cells; test: Detection of apoptosis (annexin V/PI flow cytometry); assay type: cell-based, human; details: 24 h
Description: Flow cytometry was performed using PI and FITC-labelled annexin V (BD Pharmingen, CA, USA) staining according to the manufacturer’s protocol. […] After incubation at room temperature in the dark for 15 min, 400 μl of binding buffer (1×) was added. The samples were analysed within 1 h by flow cytometry (FACSCanto II, BD, San Jose, CA).

[7] = test system: intracellular ROS in MDA-MB-231 cells; test: Measurement of intracellular ROS (H2DCFDA); assay type: cell-based, human; details: 24 h, maximum potency at 20 μM
Description: The levels of intracellular ROS were monitored using dichlorofluorescein diacetate (H2DCFDA) as previously reported. […] The culture media were replaced with 1 ml of H2DCFDA/RPMI DMEM media and incubated at 37 °C for 30 min, with a final H2DCFDA concentration of 10 μM. The levels of ROS were then detected using flow cytometry (FACSCanto II, BD, San Jose, CA).

[8] = test system: β-catenin mRNA in MDA-MB-231 cells; test: PCR analysis of β-catenin mRNA; assay type: cell-based, human; details: 24 h
Description: (§2) Total RNA from MDA-MB-231 cells was isolated using TRIzol (Life Technologies, USA). RNA samples were quantified using a NanoDrop 3300 spectrophotometer (Thermo Scientific, NanoDrop Products, Wilmington, DE, USA). Synthesis of cDNA was performed using a RevertAid First Strand cDNA Synthesis kit per manufacturer’s protocols (Thermo Scientific, USA). The reaction mixtures were heated at 95 °C for 10 min, followed by 30 cycles at 94 °C for 30 s, 58 °C for 30 s, 72 °C for 20 s, and a final extension at 72 °C for 5 min. Subsequently, PCR products were electrophoresed in a 1.5% agarose gel and scanned using a gel/fluorescence image analysis system. GAPDH was selected as a loading control to standardize the amount of cDNA from each sample.

[9] = test system: E-cadherin mRNA in MDA-MB-231 cells; test: PCR analysis of E-cadherin mRNA; assay type: cell-based, human; details: 24 h
Description: as §2

[10] = test system: Snail expression in MDA-MB-231 cells; test: PCR analysis of Snail expression; assay type: cell-based, human; details: 24 h
Description: as §2

[11] = test system: vimentin mRNA in MDA-MB-231 cells; test: PCR analysis of vimentin mRNA; assay type: cell-based, human; details: 24 h
Description: as §2

[12] = test system: β-catenin protein in MDA-MB-231 cells; test: Western blotting of β-catenin; assay type: cell-based, human
Description: (§3) Total cell lysates were obtained by lysing the cells in SDS lysis buffer containing a protease inhibitor (PMSF), and protein concentrations were determined using a BCA protein assay kit. The proteins were separated by SDS-PAGE and transferred to PVDF membranes. The membranes were incubated with primary antibodies against Snail, Vimentin, β-catenin, and E-cadherin (1:1000 dilution) overnight at 4 °C, rinsed with TBST, and incubated with IRDye-conjugated anti-rabbit or anti-mouse IgG secondary antibodies (1:1000, LI-COR Biosciences). A β-actin-specific monoclonal antibody (1:1000 dilution) was used as a loading control. Bands were visualized with an Odyssey LI-COR infrared imaging system (LI-COR, Lincoln, NE).

[13] = test system: E-cadherin protein in MDA-MB-231 cells; test: Western blotting of E-cadherin; assay type: cell-based, human; details: western blot
Description: as §3

[14] = test system: Snail protein in MDA-MB-231 cells; test: Western blotting of Snail; assay type: cell-based, human; details: western blot
Description: as §3

[15] = test system: vimentin protein in MDA-MB-231 cells; test: Western blotting of vimentin; assay type: cell-based, human; details: western blot
Description: as §3

[16] = test system: MDA-MB-231 xenografted tumours; test: Mouse xenograft model, anti-tumour effect in vivo; set-up: species or system BALB/c nude mice
Description: Female BALB/c nude mice (18 ± 2 g) were purchased from Institute of Laboratory Animal Sciences, Peking Union Medical College (Beijing, China). […] The tumour length and width were measured using callipers and the tumour volume was calculated twice weekly. The body weight of mice was determined at least twice weekly during the study period.

[17] = In vivo pharmacokinetics in rat plasma (UPLC-MS/MS, NCA); set-up: species or system Sprague-Dawley (SD) rats; details: intraperitoneal; for Cmax / MRT last / Tmax / half-life / AUC(0-t): male, Sprague-Dawley, plasma, ip; for MRT last: read-out: MRT0-t
Description: Male Sprague-Dawley (SD) rats (250 ± 50 g body weight) were purchased from Institute of Laboratory Animal Sciences, Peking Union Medical College (Beijing, China). Rats were housed in a light-controlled room at 25 ± 2 °C and 55 ± 5% relative humidity, at the Animal Center of Tianjin Medical University Cancer Institute and Hospital (Tianjin, China). Animals received a standard diet and water ad libitum. […] At 0, 10, 20, 30, 40 min, 1, 2, 3, 4, 6, 8, 10, 12, and 24 h post injection, blood samples were collected into heparinized glass tubes by direct venipuncture. Plasma was prepared from the blood by centrifugation at 13,000 rpm for 10 min at 4 °C and stored at −80 °C until further analysis.
An ACQUITY™ ultra-performance liquid chromatography system connected to a Xevo triple quadrupole mass spectrometry system (Waters, MA, USA) equipped with an electrospray ionization (ESI) source was used in this study. Aliquots (50 μl) of plasma was vortex-mixed with methanol (400 μl) containing diazepam (internal standard, 200 ng/ml concentration) for 2 min and then centrifuged at 13,000 rpm at 4 °C for 10 min. Then, 400 μl of supernatant was transferred to a clean centrifuge tube and dried with an N2 gas stream. Samples were reconstituted with 100 μl methanol/H2O (50/50, v/v). The injection volume of the assay was 5 μl. The mobile phase (MP) was composed of MPA (acetonitrile) and MPB (5 mM ammonium formate with 0.1% formic acid in water), and the flow rate was maintained at 0.3 ml/min. […] A switching valve directed the flow eluting between 1.0–2.5 min into a mass spectrometer, and the remainder to a waste container. BHX and diazepam were ionized with ESI in the positive mode and fragmented with collision gas for analysis using multiple reaction monitoring (MRM). The ESI source settings for the analysis were as follows: 350 °C gas temperature; 650 L/h desolvation; 50 L/h cone; 2.5 kV capillary voltage. […] The data acquisition and processing were done using MassLynx Mass Spectrometry software, version 4.1 (Waters, MA, USA). The dwell time was 400 ms for all ion transitions monitored.

[18] = test system: MDA-MB-231 cells; test: Morphology of MDA-MB-231 cells after BHX; assay type: cell-based, human; details: 24 h incubation, more noticeable at high concentrations
[19] = test system: A549; set-up: method as in PMID 24098916; details: cited from earlier work
[20] = test system: HT29; set-up: method as in PMID 24098916; details: cited from earlier work
[21] = test system: MGC803; set-up: method as in PMID 24098916; details: cited from earlier work

In the case of `O=C(NCc1ccc(O)cc1)C1C(c2ccccc2)C(c2ccccc2)=NN1c1ccccc1` (centres unmarked) [BHX], the IC50 ([1]; MDA-MB-231, 24 h) is reported as 28.1 µM, the IC50 ([1]; MDA-MB-231, 72 h) is reported as 13.8 µM and the IC50 [2] is reported as about 20 µM. The inhibition at 5 µM ([3]; 5 μM) was 34.4 ± 1.06%, the inhibition at 10 µM ([3]; 10 μM) was 71 ± 1.65% and the inhibition at 20 µM ([3]; 20 μM) was 90.32 ± 0.68%. For the same compound, the “reduction of invasive potential” value [4] was 48.38%, the “percentage of cells in the G0/G1 phase” value ([5]; 10 μM) was 54.49 ± 1.93% and the “percentage of cells in the G0/G1 phase” value ([5]; 20 μM) was 61.50 ± 2.85%. For the same compound, the “early apoptotic cells vs vehicle” value [6] was “increased the percentage of early apoptotic cells”, the ROS generation [7] was “significantly increased in a dose-dependent manner” and the “decrease of β-catenin mRNA levels” value ([8]; 5 μM) was 4.61%. The “decrease of β-catenin mRNA levels” value ([8]; 10 μM) was 25.73%, the “decrease of β-catenin mRNA levels” value ([8]; 20 μM) was 33.19% and the “increase of E-cadherin mRNA levels compared to control” value (from here on “increase of E-cadherin mRNA levels”) ([9]; 5 μM) was 1.39 fold. The “increase of E-cadherin mRNA levels” value ([9]; 10 μM) was 1.65 fold, the “increase of E-cadherin mRNA levels” value ([9]; 20 μM) was 2.06 fold and the “reduction of Snail expression” value ([10]; 5 μM) was 7.03%. For the same compound, the “reduction of Snail expression” value ([10]; 10 μM) was 15.88%, the “reduction of Snail expression” value ([10]; 20 μM) was 27.14% and the “reduction of vimentin mRNA levels” value ([11]; 5 μM) was 4.89%. The “reduction of vimentin mRNA levels” value ([11]; 10 μM) was 26.27%, the “reduction of vimentin mRNA levels” value ([11]; 20 μM) was 40.08% and the “β-catenin expression by western blotting” value [12] was “suppressed β-catenin expression in a concentration-dependent manner”. For the same compound, the E-cadherin protein level [13] was “up-regulating the protein and mRNA levels of E-cadherin”, the Snail protein expression [14] was “down-regulating Snail and vimentin expression in a dose-dependent manner” and the vimentin protein expression [15] was “down-regulating Snail and vimentin expression in a dose-dependent manner”. The average tumour volume ([16]; 100 mg/kg for 21 days, vehicle 1179 ± 128 mm^3) was 754 ± 96 mm^3, the “tumour size compared to control group” value ([16]; 100, 200 mg/kg, daily intraperitoneal, 21 days, p < 0.01) was “significant decrease in tumour size” and the “body weight of treated mice” value ([16]; 21 days treatment, p > 0.05) was “no significant loss of body weight”. For the same compound, the “bioluminescent intensity of tumours” value ([16]; 21 days, dose not stated, control 8.90 ± 0.74 × 10^7) was 6.13 ± 0.52 × 10^7 p/sec/cm^2/sr, the CL ([17]; 50 μg/kg) was 0.467 ± 0.1 mL/min/kg and the Vd ([17]; 50 μg/kg) was 0.192 ± 0.047 L/kg. The t1/2 ([17]; 50 μg/kg) was 4.82 ± 0.93 h, the CL ([17]; 100 μg/kg) was 0.717 ± 0.12 mL/min/kg and the Vd ([17]; 100 μg/kg) was 0.253 ± 0.062 L/kg. For the same compound, the Cmax ([17]; 50 ug/kg) was 325 ± 55.1 ng/mL, the MRT last ([17]; 50 ug/kg, 50 μg/kg) was 6.8 ± 1.25 h and the Tmax ([17]; 50 ug/kg, 50 μg/kg, read-out: Tmax) was 5.37 ± 1.16 h. The half-life ([17]; 50 ug/kg, 50 μg/kg, read-out: elimination half-life in plasma (converted)) was 4.82 ± 0.93 h, the AUC(0-t) ([17]; 50 ug/kg, first AUC0-t line) was 1770 ± 325 ng·h/mL and the AUC(0-t) ([17]; 50 ug/kg, second AUC0-t line) was 1820 ± 287 ng·h/mL. The Cmax ([17]; 100 ug/kg) was 405 ± 87.5 ng/mL, the MRT last ([17]; 100 ug/kg, 100 μg/kg) was 6.36 ± 1.32 h and the Tmax ([17]; 100 ug/kg, 100 μg/kg, read-out: Tmax) was 5.62 ± 1.38 h. For the same compound, the half-life ([17]; 100 ug/kg, 100 μg/kg, read-out: t1/2 (converted)) was 4.11 ± 0.81 h, the AUC(0-t) ([17]; 100 ug/kg, first AUC0-t line) was 2300 ± 412 ng·h/mL and the AUC(0-t) ([17]; 100 ug/kg, second AUC0-t line) was 2350 ± 303 ng·h/mL. For the same compound, the Tmax ([17]; Fig. 7c, read-out: time to peak plasma level post administration) was about 6 h, the morphological changes [18] was “cell shrinkage and fragmentation” and the cytotoxic effects [19] was “exhibits cytotoxic effects”. The cytotoxic effects [20] was “exhibits cytotoxic effects” and the cytotoxic effects [21] was “exhibits cytotoxic effects”.
